Assay: Solubility of N-benzoyl-staurosporine in water, simulated gastric and intestinal fluids
Assay type: physicochemical
Description: U.S. Pat. No. 5,093,330 specifically discloses two tablet formulations based on starch/lactose mixtures in the presence of colloidal silica, talc and magnesium stearate (Examples 52 and 53) and a capsule formulation based on talc and colloidal silica (Example 54). […] We have found it to be very lipophilic and practically insoluble in water, in simulated gastric and in intestinal fluids (solubility<0.1 mg/L). In particular this exceptional low solubility of the active substance necessitated development of a non-conventional dosage form.

Structure (SMILES): CO[C@@H]1[C@H](N(C)C(=O)c2ccccc2)C[C@H]2O[C@]1(C)n1c3ccccc3c3c4c(c5c6ccccc6n2c5c31)C(=O)NC4 [N-benzoyl-staurosporine]
- solubility: < 0.1 µg/mL

— patent publication US8575147B2, “Spontaneously dispersible N-benzoyl staurosporine compositions” (Novartis AG, priority 1999, dated 2013)
